From PMC6784447, “Evaluation of 3-Chlorobenzoate 1,2-Dioxygenase Inhibition by 2- and 4-Chlorobenzoate with a Cell-Based Technique” (Biosensors, 2019)

System: T1, 3-chlorobenzoate-1,2-dioxygenase (3-CBDO; 3-CBA-1,2-DO)
T1 construct: native enzyme, not purified, in intact freshly harvested 3-CBA-grown cells; component and subunit make-up printed only for the analogous benzoate 1,2-dioxygenase; with 3-chlorobenzoate 1,2-dioxygenase subunit beta (benzoate 1,2-dioxygenase small subunit-like); 3-chlorobenzoate 1,2-dioxygenase reductase component (benzoate 1,2-dioxygenase reductase-like)
Experiment: respiration of intact cells, Clark oxygen electrode reactor biosensor; Hill fit
Format: cell-based, Rhodococcus opacus
Settings: 50 mM Tris-HCl pH 8.0, air-saturated, room temperature; intact 3-CBA-grown cells (indirect estimate of enzyme activity); Hill n 2.36; no added inhibitor; read-out: S0.5

O=C(O)c1cccc(Cl)c1 [3-chlorobenzoate]
Km: 45.3 ± 6.3 µM
